According to publication PMC8252455, “Prediction of a clinically effective dose of THY1773, a novel V 1B receptor antagonist, based on preclinical data” (Biopharmaceutics & Drug Disposition, 2021):
Values joined by “and” are separate entries in the source; they are usually repeats but may differ in a detail not shown here. Equal values may be shown once.

Legend:
CYP2D6 = target: T1, CYP2D6 (Homo sapiens, UniProt P10635); assay: Reaction phenotyping in HLMs with quinidine; type: in vitro ADME
T1 construct: THY1773 (500 nmol/L) was incubated with pooled HLMs (0.5 mg protein/ml); tissue Sekisui XenoTech, LLC; host or cells: pooled human liver microsomes (50 donors)
T1 sequence (P10635 whole entry): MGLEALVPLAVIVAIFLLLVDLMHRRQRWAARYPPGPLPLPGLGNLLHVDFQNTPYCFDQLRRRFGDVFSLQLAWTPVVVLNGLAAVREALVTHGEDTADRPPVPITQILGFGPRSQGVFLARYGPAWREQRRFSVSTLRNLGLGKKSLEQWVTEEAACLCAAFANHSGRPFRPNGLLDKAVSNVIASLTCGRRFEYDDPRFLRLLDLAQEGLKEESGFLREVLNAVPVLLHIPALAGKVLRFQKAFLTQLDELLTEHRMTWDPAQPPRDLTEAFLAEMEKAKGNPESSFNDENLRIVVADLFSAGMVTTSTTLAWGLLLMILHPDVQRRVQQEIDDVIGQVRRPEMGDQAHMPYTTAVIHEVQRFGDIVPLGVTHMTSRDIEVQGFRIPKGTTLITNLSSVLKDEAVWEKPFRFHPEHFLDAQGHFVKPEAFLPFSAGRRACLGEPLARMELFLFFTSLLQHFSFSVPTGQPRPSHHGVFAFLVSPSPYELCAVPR
Protocol: Reaction phenotyping using cDNA expressed recombinant human CYP isoforms, CYP1A2, CYP2B6, CYP2C8, CYP2C9, CYP2C19, CYP2D6, and CYP3A4, was conducted. Each recombinant enzyme (100 pmol/ml) in potassium phosphate buffer (pH 7.4; 100 mmol/L for CYP3A4, 50 mmol/L for the others) was preincubated with [^3H]THY1773 (10 μmol/L) at 37°C for 5 min. The reactions were initiated by the addition of NADPH‐generating system (1 mmol/L NADP^+, 5 mmol/L G‐6‐P, 1 unit/ml G‐6‐PDH, and 5 mmol/L MgCl2) and incubated for 0 or 60 min. The reactions were terminated by the addition of an equal volume of acetonitrile/methanol (9:1, vol/vol), followed by centrifugation at 1650 × g for 10 min at 4°C. An aliquot of the supernatant was subjected to an Agilent 1200 HPLC system (Agilent Technologies, Inc.) equipped with a radiochemical flow detector (Radiomatic 625TR; Perkin Elmer, Inc.), and formation of metabolites was evaluated. Reaction phenotyping study was also conducted using HLMs and selective chemical inhibitors for CYP2D6 and CYP3A, which were assumed to have significant roles in THY1773 metabolism from recombinant metabolic stability. Quinidine (1 μmol/L) for CYP2D6 and ketoconazole (1 μmol/L) for CYP3A were used as selective inhibitors. THY1773 (500 nmol/L) was incubated with pooled HLMs (0.5 mg protein/ml) in potassium phosphate buffer (100 mmol/L, pH 7.4) in the absence or presence of the selective inhibitors. The reactions were initiated by the addition of NADPH generating system (1.3 mmol/L β‐NADP^+, 3.3 mmol/L G‐6‐P, 3.3 mmol/L MgCl2, and 0.4 units/ml G‐6‐PDH), and incubated at 37°C for 30 min. The reactions were terminated by the addition of two volumes of acetonitrile/methanol (9:1, vol/vol) containing the IS. […] The CLint was calculated by the method as described previously under metabolic stability in animal liver microsomes, and the fraction metabolized (fm) was calculated by Equation (1): (1) fm=1−(CLint, with inh/CLint) where CLint is intrinsic clearance without specific inhibitor and CLint,with inh is intrinsic clearance in the presence of specific inhibitor.

[1] = PK and urinary excretion in rats; type: in vivo, rat
Protocol: The PK and urinary excretion of THY1773 in rats (1 mg/kg) and dogs (0.5 mg/kg) under fasted conditions were evaluated following intravenous or oral administration of THY1773. THY1773 was dissolved in 10% (vol/vol) hydroxypropyl‐β‐cyclodextrin at pH 4 for intravenous administration, or suspended in 0.5% (wt/vol) methyl cellulose 400 for oral administration. After a single intravenous or oral administration of THY1773, blood samples were collected into tubes containing EDTA‐2K as an anticoagulant. The scheduled time points were predose (dog only), 5 (intravenous only), 15, 30 min, 1, 2, 4, 8, 12, and 24 h postdose. Plasma was separated by centrifugation. Urine samples were collected into bottles set on ice for 24 h after intravenous administration of THY1773. Plasma and urine samples were treated with 4 volumes of acetonitrile/methanol (9:1, vol/vol) containing the IS. After centrifugation (3639 × g, 4°C, 10 min) to remove precipitated proteins, the supernatant was subjected to LC‐MS/MS analysis. The distributions of THY1773 into brain and pituitary gland in rats were investigated after a single oral administration of THY1773 (1 mg/kg). Blood was collected from the tail vein into tubes containing EDTA‐2K at 1 h after a single oral administration of THY1773, and the plasma was separated by centrifugation (12000 × g, 4°C, 3 min). After blood collection, the brain and pituitary gland were excised followed by homogenization with approximately 4 volumes of distilled water. Plasma, brain, and pituitary samples were treated with 4 volumes of acetonitrile/methanol (9:1, vol/vol) containing the IS and centrifuged (3639 × g, 4°C, 10 min). Aliquots of the supernatant were subjected to LC‐MS/MS analysis.
(§1) The plasma concentration–time profiles of THY1773 were analyzed by a non‐compartmental analysis with PK analysis software Phoenix WinNonlin® (version 6.1; Certara), and the PK parameters were calculated. The fraction excreted in urine was calculated by dividing the amount of THY1773 excreted in urine by the administered dose.

[2] = Phase 1 single ascending dose study of TS-121 capsules; type: in vivo, human
Protocol: as §1
A first‐in‐human, randomized, double‐blind, placebo‐controlled, adaptive, single‐ascending dose study was conducted to evaluate the safety, tolerability, and PK of single oral doses of TS‐121 capsules in the United States. This study was conducted in accordance with the ethical principles of the Declaration of Helsinki, International Council for Harmonization Good Clinical Practice Guidelines, and the United States Food and Drug Administration Code of Federal Regulations. The study was approved by an institutional ethical review board. All subjects provided written informed consent before participating in the study. Sixty‐eight healthy male or female volunteers were enrolled and received a single oral dose of either TS‐121 capsules (0.5, 2.5, 4, 8, 15, 30, or 50 mg as THY1773/day) or placebo in a 3:1 ratio in a fasted state.
Blood samples were collected at predose and 0.25, 0.5, 0.75, 1, 1.5, 2, 3, 4, 6, 8, 10, 12, 24, 36, and 48 h postdose. Urine samples were collected before dosing and at the following time intervals after dosing: 0–6, 6–12, 12–24, 24–36, and 36–48 h. THY1773 plasma and urine concentrations were determined by validated LC‐MS/MS methods. PK parameters were evaluated following the method as described in Section 2.5 PK analysis.

[3] = male rats, iv 1 mg/kg, mean (%CV), n=3
[4] = male rats, po 1 mg/kg, mean (%CV), n=3
[5] = human, average over dose range 0.5 to 50 mg
[6] = human, single oral 30 mg, fasted, mean

## CC(C)NC(=O)Cn1c(-c2cccc(Cl)c2)nn(-c2ccc(CCN3CCOCC3)cc2)c1=O [THY1773]
CYP2D6; HLMs, with quinidine 1 μmol/L
  CLint: 10.2 ± 0.509 µL/min/mg
CYP2D6; PBPK input, experimental data
  fm,CYP2D6: 0.089
CYP2D6; by CYP2D6, HLMs, quinidine 1 μmol/L
  fm (fraction metabolized): 0.0893
[1]; [3]
  AUC0‐∞: 762 (14.9) h·ng/ml
  CLtotal: 1330 (13.7) ml/h/kg
  Vdss: 2220 (5.7) ml/kg
  t1/2: 1.38 (2.3) h
[1]; male rats, po 1 mg/kg, 1 mg/kg
  F (oral bioavailability): 46.6%
[1]; [4]
  AUC0‐∞: 355 (13.5) h·ng/ml
  Cmax: 136 (11.8) ng/ml
  t1/2: 1.45 (5.5) h
  tmax: 0.833 (34.6) h
[1]; rats
  CLrenal compared with fu × GFR: comparable to fu × GFR
[1]; rats, single intravenous administration
  CLtotal as share of hepatic blood flow: approximately 30 % of hepatic blood flow
[1]; rats, within 24 h post intravenous dosing
  Urinary excretion of unchanged drug: 4.6%
[2]; human
  Observed CLrenal compared with predicted value: lower than the predicted value
  Observed oral blood CL as share of hepatic blood flow: 2.6 % of the hepatic blood flow
[2]; [5]
  Apparent volume of distribution during the terminal phase: 40.6 L
  Oral CLtotal: 1.32 L/h
[2]; human, dose range 0.5–50 mg
  Dose linearity of PK: linear PK
[2]; [6]
  AUC0‐∞: 21340 ng·h/mL
  CLpo: 1.52 L/h
  Cmax: 949 ng/mL
  Vdz/F: 43.6 L
[2]; human, single oral 30 mg, fasted, median
  tmax: 1.3 h and 1.27 h
[2]; human, within 48 h post oral dosing, average over dose range
  Urinary excretion of unchanged drug: 4.2%
[2]; oral, phase 1 study
  Observed human CLtotal/F: 17.2 mL/h/kg
  Observed human Vdz/F: 528 mL/kg
